Drawing on PMC4838876, “Multivalent display of minimal Clostridium difficile glycan epitopes mimics antigenic properties of larger glycans” (Nature Communications, 2016), this text covers off-rate, Kd and off-rate koff for two compounds.

For orientation: Kd means a measure of binding affinity in units of concentration. Read a low Kd as higher affinity.

This assay concerns mAb 2C5 (anti-PS-I IgG1). The assay can be described thus: Kinetic SPR of glycans binding to captured mAb 2C5. Details: species or system mouse. The following applies: for off-rate: mAb 2C5; for Kd: mAb 2C5, PBS, 25 °C. As to the method: Kinetic SPR experiments were performed to determine the binding strengths of the mAbs to PS-I glycans expressed as dissociation constants (KD)[8] (Fig. 5a). […] Overall, the SPR measurements (summarized in Table 1) confirmed results obtained by glycan microarray presented above.
Figure 5 KD values of anti-PS-I mAbs binding to 1 and 3 inferred by SPR. (a) mAbs were captured with an anti-mouse IgG antibody immobilized on the SPR sensor surface. Glycan antigens were passed over the surface to monitor changes in the response unit signals. (b,c) Representative sensorgrams showing reference-subtracted binding signals to 1 (b) and 3 (c). KD values were calculated by fitting the curves to a 1:1 Langmuir binding model (black overlaid curves) or with a steady-state affinity model (response units versus concentration plots). Indicated KD values are mean±s.e.m. of n=3 or mean with minimum and maximum values in parentheses of n=2 independent experiments. See Supplementary Figs 3–5 for details.
Binding analyses were carried out on a Biacore T100 instrument (GE Healthcare). CM5 sensor chips were functionalized with about 10,000 RUs of α-mouse IgG capture antibody, using the Mouse Antibody Capture Kit and the Amine Coupling Kit (GE Healthcare) according to the manufacturer's recommendations. A blank-immobilized flow cell was used as reference, to compensate for nonspecific binding of antibodies or oligosaccharides to the sensor chip surface. Kinetic measurements were performed with the Biacore T100 Control software using the ‘Kinetics' function. PBS was used as running buffer and all measurements were performed at 25 °C and a flow rate of 30 μl min^−1. About 500 RUs of mAbs were captured at a concentration of 50 μg ml^−1 diluted in PBS and oligosaccharides or OAAs (in PBS) at the indicated concentrations were passed through, using the standard parameters for association and dissociation times unless mentioned otherwise. Flow cells were regenerated with 10 mM glycine-HCl pH 1.7 for 30 s. Kinetic evaluation of binding responses was performed with the Biacore T100 Evaluation software, using reference-subtracted sensorgrams. Two different kinetic models, a 1:1 binding Langmuir model and a two-state reaction model, which assumes a conformational change in the antibody–analyte complex, were used to fit the data. The fitting quality was evaluated by investigating respective residual plots, χ^2 and s.e. values for on- and off-rates. Both models yielded similar good fittings. We chose the 1:1 binding model over the two-state reaction model to calculate on- and off-rates, as well as KD values, as this model makes fewer assumptions. When on-rates and/or off-rates were outside of the measurable ranges of the instrument, the steady-state affinity model was used instead to determine KD values. The 1:1 binding model was generally preferred over the steady-state affinity model in cases where both could be applied. In these cases, the two models yielded roughly similar KD values. Thermodynamic parameters were inferred by using the ‘Thermodynamics' function of the Biacore T100 Control software with the same experimental set-up described above. Temperatures from 13 to 37 °C were chosen. Values for ΔG, ΔH and ΔS were inferred by van't Hoff analysis. IM analysis was carried out by Ridgeview Diagnostics AB, Uppsala, Sweden.
Supplementary Figure 3 | KD values of mAb 2C5 to PS‐I oligosaccharide antigens inferred by SPR. […]

[1] abbreviates: mean±s.e.m. n=3 or mean (min;max) n=2.

In turn, `C[C@@H]1O[C@@H](O[C@@H]2[C@@H](O)[C@H](O[C@H]3[C@H](O[C@@H]4O[C@@H](C)[C@H](O)[C@@H](O)[C@H]4O)[C@@H](O)[C@@H](O[C@H]4[C@@H](OCCCCCN)O[C@H](CO)[C@@H](O)[C@@H]4O)O[C@@H]3CO)O[C@H](CO)[C@H]2O)[C@H](O)[C@H](O)[C@H]1O` [Compound 1] showed an off-rate of 0.0019 s⁻¹. Further, under setting [1], the Kd worked out at 0.163 ± 0.023 µM. The off-rate koff (mAb 2C5, dissociation model fit, mean±s.e.m. n=3 or mean (min;max) n=2) is listed as 1.6±0.1 × 10^-3 s^-1.
In the case of `C[C@@H]1O[C@@H](O[C@@H]2[C@@H](O)[C@H](OCCCCCN)O[C@H](CO)[C@H]2O)[C@H](O)[C@H](O)[C@H]1O` [Compound 3, Rha-(1→3)-Glc], the off-rate is 0.0016 s⁻¹. The compound also registered a Kd under setting [1] of 18 µM.
